ChEMBL document CHEMBL5620373, “Establishment of environment-sensitive probes targeting BRD3/BRD4 for imaging and therapy of tumor” (Eur J Med Chem, 2023)
The source made the active and inactive calls. No cut-off for these calls is given here.

Assays:
[1] = tested on: MCF7; test: Induction of apoptosis in human MCF7 cells assessed as increase in AMPK mRNA level at 1 to 10 umol/L by qRT-PCR analysis; type: functional, cell-based; conditions: dose 1-10 µmol/L, TDE = time-dependent effect
[2] = tested on: MCF7; test: Induction of apoptosis in human MCF7 cells assessed as increase in Bcl-2 mRNA level at 1 to 10 umol/L after 48 hrs by qRT-PCR analysis; type: functional, cell-based; conditions: dose 1-10 µmol/L
[3] = tested on: MCF7; test: Induction of apoptosis in human MCF7 cells assessed as increase in AMPK mRNA level at 1 to 10 umol/L after 48 hrs by qRT-PCR analysis; type: functional, cell-based; conditions: dose 1-10 µmol/L
[4] = tested on: MCF7; test: Induction of apoptosis in human MCF7 cells assessed as decrease in c-Myc mRNA level at 1 to 10 umol/L after 48 hrs by qRT-PCR analysis; type: functional, cell-based; conditions: dose 1-10 µmol/L
[5] = tested on: MCF7; test: Induction of apoptosis in human MCF7 cells assessed as increase in early apoptotic cells after 48 hrs by flow cytometry analysis; type: functional, cell-based
[6] = tested on: MCF7; test: Induction of apoptosis in human MCF7 cells assessed as decrease in c-Myc mRNA level after 48 hrs by qRT-PCR analysis; type: functional, cell-based; conditions: dose 1-10 µmol/L
[7] = tested on: MCF7; test: Induction of apoptosis in human MCF7 cells assessed as decrease in c-Myc mRNA level at 1 to 10 umol/L by qRT-PCR analysis; type: functional, cell-based; conditions: dose 1-10 µmol/L, TDE = time-dependent effect
[8] = tested on: MCF7; test: Induction of apoptosis in human MCF7 cells assessed as increase in Bcl-2 mRNA level after 48 hrs by qRT-PCR analysis; type: functional, cell-based; conditions: dose 1-10 µmol/L
[9] = tested on: MCF7; test: Inhibition of cell migration in human MCF7 cells assessed as reduction in wound healing at 10 umol/L measured upto 72 hrs by scratch assay; type: functional; conditions: MCF7, 72 h, dose 10 µmol/L
[10] = tested on: MCF7; test: Inhibition of cell migration in human MCF7 cells assessed as reduction in wound healing at 1 umol/L measured upto 72 hrs by scratch assay; type: functional, cell-based; conditions: dose 1.0 µmol/L
[11] = tested on: MCF7; test: Induction of apoptosis in human MCF7 cells assessed as increase in Bcl-2 mRNA level at 1 to 10 umol/L by qRT-PCR analysis; type: functional, cell-based; conditions: dose 1-10 µmol/L, TDE = time-dependent effect
[12] = tested on: MCF7; test: Induction of apoptosis in human MCF7 cells assessed as increase in AMPK mRNA level after 48 hrs by qRT-PCR analysis; type: functional, cell-based; conditions: dose 1-10 µmol/L
[13] = Drug uptake in human MCF7 cells assessed as fluorescence emission by fluorescence microscopic analysis; type: ADME, cell-based
[14] = Fluorescent property of compound in PBS at pH 7.4 assessed as emission wavelength by microplate reader analysis; type: physicochemical; conditions: buffer
[15] = Fluorescent property of compound in PBS at pH 7.4 assessed as excitation wavelength by microplate reader analysis; type: physicochemical; conditions: buffer
[16] = Drug uptake in HEK293 cells assessed as fluorescence emission by fluorescence microscopic analysis; type: ADME, cell-based; conditions: human
[17] = target: Bromodomain-containing protein 4 (Homo sapiens) (UniProt O60885); test: Binding affinity to recombinant BRD4 (unknown origin) in PBS at pH 7.4 assessed as increase in fluorescence intensity measured after 30 mins by TR-FRET assay; conditions: dose 0.4-3.1 µg/ml
[18] = target: Bromodomain-containing protein 4 (Homo sapiens) (UniProt O60885); test: Binding affinity to recombinant BRD4 (unknown origin) in PBS at pH 7.4 assessed as increase in fluorescence intensity at […] in presence of JQ1(+) by TR-FRET assay; conditions: time 30.0 min
[19] = Drug uptake in human MCF7 cells nucleus assessed as fluorescence intensity at 15 umol/L in presence of JQ1(+) by acridine orange dye based analysis; type: ADME, cell-based; conditions: mcf7, 15 µM, dose 15 µmol/L
[20] = Drug uptake in fixed human MCF7 cells nucleus assessed as fluorescence intensity in presence of BRD4 antibody by acridine orange dye based analysis; type: ADME, cell-based
[21] = Drug uptake in BRD4 silenced human MCF7 cells nucleus assessed as fluorescence intensity at 15 umol/L by acridine orange dye based analysis; type: ADME, cell-based; conditions: mcf7, 15 µM, dose 15 µmol/L
[22] = target: Bromodomain-containing protein 3 (Homo sapiens) (UniProt Q15059); test: Binding affinity to recombinant BRD3 (unknown origin) in PBS at pH 7.4 assessed as increase in fluorescence intensity at […] in presence of JQ1(+) by TR-FRET assay; conditions: time 30.0 min
[23] = Drug uptake in human MCF7 cells xenografted nude mouse tumor tissue in presence of BRD4 antibody by immunofluorescence analysis; type: ADME, Neoplasm; conditions: in vivo
[24] = Drug uptake in BRD3 silenced human MCF7 cells nucleus assessed as fluorescence intensity at 15 umol/L by acridine orange dye based analysis; type: ADME, cell-based; conditions: mcf7, 15 µM, dose 15 µmol/L
[25] = Drug uptake in human MCF7 cells xenografted mouse tumor tissue assessed as fluorescence intensity at 15 umol/L by acridine orange dye based fluorescence microscopic assay; type: ADME, cell-based; conditions: in vivo, 15 µM, dose 15 µmol/L
[26] = Drug uptake in human MCF7 cells nucleus assessed as fluorescence intensity at 15 umol/L by acridine orange dye based analysis; type: ADME, cell-based; conditions: mcf7, 15 µM, dose 15 µmol/L
[27] = Drug uptake in BRD4 silenced fixed human MCF7 cells nucleus assessed as fluorescence intensity at 15 umol/L by acridine orange dye based analysis; type: ADME, cell-based; conditions: mcf7, 15 µM, dose 15 µmol/L
[28] = target: Bromodomain-containing protein 3 (Homo sapiens) (UniProt Q15059); test: Binding affinity to recombinant BRD3 (unknown origin) in PBS at pH 7.4 assessed as increase in fluorescence intensity measured after 30 mins by TR-FRET assay; conditions: dose 15.0 µmol/L
[29] = Drug uptake in human MCF7 cells xenografted nude mouse tumor tissue assessed as fluorescence intensity at 15 umol/L in presence of JQ1(+) by acridine orange dye based fluorescence microscopic assay; type: ADME, Neoplasm; conditions: in vivo, 15 µM, dose 15 µmol/L
[30] = tested on: MCF7; test: Antiproliferative activity against human MCF7 cells assessed as reduction in cell viability by MTT assay; type: functional, cell-based
[31] = Drug uptake in human MCF7 cells xenografted nude mouse tumor tissue in presence of BRD3 antibody by immunofluorescence analysis; type: ADME, Neoplasm; conditions: in vivo
[32] = Drug uptake in BRD3 silenced fixed human MCF7 cells nucleus assessed as fluorescence intensity at 15 umol/L by acridine orange dye based analysis; type: ADME, cell-based; conditions: mcf7, 15 µM, dose 15 µmol/L
[33] = Drug uptake in fixed human MCF7 cells nucleus assessed as fluorescence intensity in presence of BRD3 antibody by acridine orange dye based analysis; type: ADME, cell-based

Sequence of Bromodomain-containing protein 3 (Homo sapiens) (Q15059 2-726 limits assumed): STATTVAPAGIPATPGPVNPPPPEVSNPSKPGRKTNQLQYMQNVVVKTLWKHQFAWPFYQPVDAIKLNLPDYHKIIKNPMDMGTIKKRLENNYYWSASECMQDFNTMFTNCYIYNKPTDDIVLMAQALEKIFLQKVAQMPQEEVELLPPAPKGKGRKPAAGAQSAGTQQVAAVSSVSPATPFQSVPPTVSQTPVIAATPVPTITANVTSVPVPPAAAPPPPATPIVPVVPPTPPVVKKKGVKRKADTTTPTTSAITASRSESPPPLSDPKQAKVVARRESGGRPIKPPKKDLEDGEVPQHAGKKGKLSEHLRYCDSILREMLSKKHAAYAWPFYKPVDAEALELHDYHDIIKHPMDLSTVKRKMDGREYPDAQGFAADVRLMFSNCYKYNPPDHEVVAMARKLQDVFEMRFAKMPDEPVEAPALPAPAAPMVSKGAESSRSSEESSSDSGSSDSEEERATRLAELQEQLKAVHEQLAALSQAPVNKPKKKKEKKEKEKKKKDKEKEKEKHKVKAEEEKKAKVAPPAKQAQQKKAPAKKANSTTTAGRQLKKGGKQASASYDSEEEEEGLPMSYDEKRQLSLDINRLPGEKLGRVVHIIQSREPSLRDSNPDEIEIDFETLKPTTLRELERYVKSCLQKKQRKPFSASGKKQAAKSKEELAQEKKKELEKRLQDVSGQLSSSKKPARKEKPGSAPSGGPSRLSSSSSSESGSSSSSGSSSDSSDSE

SMILES	Activity [1]	Activity [2]	Activity [3]	Activity [4]	Activity [5]	Activity [6]	Activity [7]	Activity [8]	inhibition at 10 µM [9] [%]	inhibition [10]	Activity [11]	Activity [12]	Drug uptake [13]	Activity [14] [nm]	Activity [15] [nm]	Drug uptake [16]	other results
Cc1sc2c(c1C)C(c1ccc(Cl)cc1)=N[C@@H](CC(=O)OC(C)(C)C)c1nnc(C)n1-2	Tde	Active	Active	Active	Active	Dose-Dependent Effect	Tde	Dose-Dependent Effect	100	Active	Tde	Dose-Dependent Effect					
Cc1sc2c(c1C)C(c1ccc(Cl)cc1)=N[C@@H](CC(=O)NCCCCCNS(=O)(=O)c1cccc3c(N(C)C)cccc13)c1nnc(C)n1-2													Active	495	350	Not Active	
Cc1sc2c(c1C)C(c1ccc(Cl)cc1)=N[C@@H](CC(=O)NCCCCNS(=O)(=O)c1cccc3c(N(C)C)cccc13)c1nnc(C)n1-2													Active	495	350	Not Active	
Cc1sc2c(c1C)C(c1ccc(Cl)cc1)=N[C@@H](CC(=O)NCCCNS(=O)(=O)c1cccc3c(N(C)C)cccc13)c1nnc(C)n1-2	Tde	Active	Active	Active	Active	Dose-Dependent Effect	Tde	Dose-Dependent Effect	100	Active	Tde	Dose-Dependent Effect	Active	495	350	Not Active	Activity [17]: Dose-Dependent Effect; Activity [18]: inactive; Drug uptake [19]: Not Active; Drug uptake [20]: Active; Drug uptake [21]: Active; Activity [22]: inactive; Drug uptake [23]: Active; Drug uptake [24]: Active; Drug uptake [25]: Active; Drug uptake [26]: Active; Drug uptake [27]: Active; Activity [28]: Dose-Dependent Effect; Drug uptake [29]: Not Active; Activity [30]: Active; Drug uptake [31]: Active; Drug uptake [32]: Active; Drug uptake [33]: Active
